Measurements: PubChem BioAssay (NCI)
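Following 48 hours of exposure in 96-well plates, responses at five concentrations were used to interpolate endpoints linearly. GI50: concentration for 50% inhibition of growth. At the TGI there is no net growth.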

How the values were obtained:
Assay in all cases: growth of human tumour cells (NCI), 48 h
[1] = system: SNB-19 CNS
[2] = system: MCF7 breast
[3] = system: COLO 205 colon
[4] = system: SF-268 CNS
[5] = system: OVCAR-5 ovarian
[6] = system: PC-3 prostate
[7] = system: IGROV1 ovarian
[8] = system: NCI-H226 lung
[9] = system: OVCAR-8 ovarian
[10] = system: ACHN renal
[11] = system: NCI/ADR-RES ovarian
[12] = system: RPMI-8226 leukemia
[13] = system: M14 melanoma
[14] = system: NCI-H23 lung
[15] = system: HT29 colon
[16] = system: T-47D breast
[17] = system: 786-0 renal
[18] = system: OVCAR-3 ovarian
[19] = system: SN12C renal
[20] = system: SK-MEL-28 melanoma
[21] = system: MDA-MB-231 breast
[22] = system: SF-295 CNS
[23] = system: RXF 393 renal
[24] = system: SK-MEL-5 melanoma
[25] = system: HCT-15 colon
[26] = system: TK-10 renal
[27] = system: HCC-2998 colon
[28] = system: HOP-62 NSCLC
[29] = system: HS 578T breast
[30] = system: UO-31 renal
[31] = system: MDA-MB-435
[32] = system: UACC-257 melanoma
[33] = system: SNB-75 CNS
[34] = system: SK-OV-3 ovarian
[35] = system: K-562 leukemia
[36] = system: SW-620 colon
[37] = system: A549 NSCLC
[38] = system: SK-MEL-2 melanoma
[39] = system: MALME-3M melanoma
[40] = system: HL-60(TB) leukemia
[41] = system: MOLT-4 leukemia
[42] = system: SR leukemia
[43] = system: A498 renal
[44] = system: UACC-62 melanoma
[45] = system: NCI-H522 lung
[46] = system: SF-539 CNS
[47] = system: KM12 colon
[48] = system: LOX IMVI melanoma
[49] = system: NCI-H460 lung
[50] = system: DU-145 prostate
[51] = system: CAKI-1 renal
[52] = system: BT-549 breast
[53] = system: HCT-116 colon
[54] = system: U251 CNS
[55] = system: CCRF-CEM leukemia
[56] = system: EKVX NSCLC
[57] = system: OVCAR-4 ovarian

Work on `CCC(=O)C(CCN1CCC(N2C(=O)C(CCC#N)c3ccccc32)CC1)(c1ccccc1)c1ccccc1` (stereo not drawn) yielded a TGI [1] of 32 µM, a TGI [2] of 25.5 µM and a TGI [3] of 21.4 µM. For the same molecule, the TGI [4] was 34.5 µM, the TGI [5] was 67.7 µM and the TGI [6] was 43.2 µM. For the same molecule, the TGI [7] was 30.5 µM, the TGI [8] was 32.6 µM and the TGI [9] was 23.6 µM. For the same molecule, the TGI [10] was 43.8 µM, the TGI [11] was 25 µM and the TGI [12] was 21.8 µM. For the same molecule, the TGI [13] was 22.2 µM, the TGI [14] was 48.8 µM and the TGI [15] was 12.9 µM. It also gave a TGI [16] of 29.3 µM, a TGI [17] of 24.7 µM and a TGI [18] of 22.9 µM. It also gave a TGI [19] of 34 µM, a TGI [20] of 34.9 µM and a TGI [21] of 20.8 µM. The TGI [22] was 26.1 µM, the TGI [23] was 16.2 µM and the TGI [24] was 22.1 µM. It also gave a TGI [25] of 26 µM, a TGI [26] of 31.2 µM and a TGI [27] of 25.2 µM. The TGI [28] was 32.2 µM, the TGI [29] was 26.5 µM and the TGI [30] was 21.4 µM. The TGI [31] was 17.6 µM, the TGI [32] was 26.7 µM and the TGI [33] was 31.7 µM. For the same molecule, the TGI [34] was 37.9 µM, the TGI [35] was 23.1 µM and the TGI [36] was 24 µM. The TGI [37] was 31.7 µM, the TGI [38] was 29.7 µM and the TGI [39] was 24.8 µM. The TGI [40] was 22.2 µM, the TGI [41] was 25 µM and the TGI [42] was 10.2 µM. For the same molecule, the TGI [43] was 40.1 µM, the TGI [44] was 32.6 µM and the TGI [45] was 25.8 µM. It also gave a TGI [46] of 34.5 µM, a TGI [47] of 28 µM and a TGI [48] of 27 µM. The TGI [49] was 26.9 µM, the TGI [50] was 26.5 µM and the TGI [51] was 96.4 µM. The TGI [52] was 26.2 µM, the TGI [53] was 17 µM and the TGI [54] was 27.8 µM.

With `COc1ccc(C2CC(c3ccc(N(C)C)cc3)=NN2c2ccc(S(N)(=O)=O)cc2)cc1` (stereo not drawn) the GI50 [1] was 5.94 µM, the TGI [1] was > 100 µM and the GI50 [2] was 3 µM. It also gave a TGI [2] of 21.7 µM, a GI50 [3] of 2.46 µM and a TGI [3] of 5.49 µM. For the same molecule, the GI50 [4] was 5.76 µM, the TGI [4] was > 100 µM and the GI50 [5] was 6.57 µM. For the same molecule, the TGI [5] was > 100 µM, the GI50 [6] was 3.65 µM and the TGI [6] was > 100 µM. For the same molecule, the GI50 [7] was 4.31 µM, the TGI [7] was > 100 µM and the GI50 [8] was 2.54 µM. For the same molecule, the TGI [8] was 8.09 µM, the GI50 [9] was 3.98 µM and the TGI [9] was > 100 µM. The GI50 [10] was 3.37 µM, the TGI [10] was > 100 µM and the GI50 [11] was 4.73 µM. The TGI [11] was > 100 µM, the GI50 [12] was 3.26 µM and the TGI [12] was 13.2 µM. The GI50 [13] was 4.42 µM, the TGI [13] was > 100 µM and the GI50 [14] was 3.13 µM. The TGI [14] was > 100 µM, the GI50 [15] was 3.5 µM and the TGI [15] was 10.7 µM. For the same molecule, the GI50 [16] was 4.51 µM, the TGI [16] was > 100 µM and the GI50 [17] was 3.79 µM. It also gave a TGI [17] of 20.6 µM, a GI50 [18] of 3.02 µM and a TGI [18] of 8.18 µM. It also gave a GI50 [19] of 2.15 µM, a TGI [19] of 4.63 µM and a GI50 [20] of 4.81 µM. It also gave a TGI [20] of 93.8 µM, a GI50 [21] of 4.73 µM and a TGI [21] of 60.3 µM. For the same molecule, the GI50 [22] was 3.42 µM, the TGI [22] was > 100 µM and the GI50 [23] was 2.56 µM. For the same molecule, the TGI [23] was 7.52 µM, the GI50 [24] was 1.73 µM and the TGI [24] was 3.37 µM. For the same molecule, the GI50 [25] was 2.99 µM, the TGI [25] was > 100 µM and the GI50 [26] was 4.32 µM. It also gave a TGI [26] of 35 µM, a GI50 [27] of 2.99 µM and a TGI [27] of 12.4 µM. For the same molecule, the GI50 [28] was 3.96 µM, the TGI [28] was > 100 µM and the GI50 [29] was 5.52 µM. For the same molecule, the TGI [29] was 42.6 µM, the GI50 [30] was 3.01 µM and the TGI [30] was 54.8 µM. For the same molecule, the GI50 [31] was 3.25 µM, the TGI [31] was 34.4 µM and the GI50 [32] was 4.48 µM. The TGI [32] was > 100 µM, the GI50 [33] was 5.42 µM and the TGI [33] was > 100 µM. The GI50 [34] was 4.38 µM, the TGI [34] was > 100 µM and the GI50 [35] was 3.8 µM. The TGI [35] was > 100 µM, the GI50 [55] was 5.24 µM and the TGI [55] was > 100 µM. For the same molecule, the GI50 [36] was 4.06 µM, the TGI [36] was > 100 µM and the GI50 [37] was 3.16 µM. The TGI [37] was > 100 µM, the GI50 [38] was 4 µM and the TGI [38] was 14.3 µM. For the same molecule, the GI50 [39] was 4.12 µM, the TGI [39] was 28.1 µM and the GI50 [40] was 3.99 µM. The TGI [40] was 86.3 µM, the GI50 [41] was 3.91 µM and the TGI [41] was > 100 µM. For the same molecule, the GI50 [42] was 3.77 µM, the TGI [42] was > 100 µM and the GI50 [43] was 2.15 µM. For the same molecule, the TGI [43] was 8.53 µM, the GI50 [44] was 5.85 µM and the TGI [44] was > 100 µM. It also gave a GI50 [45] of 2.69 µM, a TGI [45] of 6.69 µM and a GI50 [46] of 4.32 µM. The TGI [46] was 56.1 µM, the GI50 [47] was 3.68 µM and the TGI [47] was > 100 µM. It also gave a GI50 [48] of 1.87 µM, a TGI [48] of 4.02 µM and a GI50 [56] of 3.79 µM. The TGI [56] was > 100 µM, the GI50 [49] was 2.44 µM and the TGI [49] was 5.53 µM. For the same molecule, the GI50 [50] was 4.84 µM, the TGI [50] was > 100 µM and the GI50 [51] was 3.35 µM. For the same molecule, the TGI [51] was > 100 µM, the GI50 [52] was 2.99 µM and the TGI [52] was 8.7 µM. The GI50 [53] was 2.12 µM, the TGI [53] was 4.77 µM and the GI50 [54] was 3.28 µM. The TGI [54] was > 100 µM, the GI50 [57] was 3.19 µM and the TGI [57] was > 100 µM.
